Experimental data: patent US12533408B2, “Treatment regimen for the treatment of autoimmune disorders” (Merck Patent GmbH, priority 2020, dated 2026)
Where “and” joins values, the source holds several entries; their conditions need not be identical. Equal values may be shown once. Entries after “also recorded” stand apart in the source; their conditions may differ.

Columns and labels:
lymphocytes = test: Absolute lymphocyte count (ALC) in vaccinated MAGNIFY-MS patients; format: in vivo, human
[1] = system: Influenza strain Victoria (Colorado/B); test: Hemagglutination inhibition (HAI) antibody titer, Victoria (Colorado/B); format: in vivo, influenza B virus; conditions: 12 patients
[2] = system: Influenza strain Yamagata (Phuket/B); test: Hemagglutination inhibition (HAI) antibody titer, Yamagata (Phuket/B); format: in vivo, influenza B virus; conditions: 12 patients
seasonal influenza = format: in vivo, influenza A and B
[3] = system: varicella zoster virus (VZV); format: in vivo; conditions: all time points examined, MAGNIFY patients
[4] = TEAEs of viral and bacterial infections in patients with Grade ≥3 lymphopenia, by age; format: in vivo, human; conditions: for incidence of bronchitis / incidence of herpes zoster / incidence of pneumonia / incidence of respiratory tract infection: Grade ≥3 lymphopenia; for overall incidence of TEAEs of viral and bacterial infections: Weeks 0-96, Grade ≥3 lymphopenia
Procedure: The definitions used for before, during, and after lymphopenia were: before (before the start date of the first lymphopenia Grade ≥3), during (on or after the start date of the first lymphopenia up and including to the last date of the last lymphopenia), and after (after the end date of the last lymphopenia). The incidence of TEAEs were summarized by Preferred Term (PT) and were coded according to the MedDRA dictionary Version 20.0. All analyses were performed using Statistical Analysis Software (SAS®), Version 9.4 or higher.

COVID-19 [5] = test: COVID-19 cases in cladribine tablets treated MS patients (Merck KGaA Global Patient Safety Database); format: in vivo, human
Procedure: On this date, there were 46 patients with confirmed or suspected COVID-19 within the safety database. Patient age was available for 35 patients, with a range of 22-67 years. There were 26 females, 12 males, and 8 patients for whom gender was not reported. Cases were defined as confirmed if a confirmatory diagnostic test was reported as positive. If no confirmatory test was performed or reported, then cases were described as suspected. […] Cases were designated as serious if they fulfilled the criteria of hospitalized, considered to be life-threatening, or medically significant. In keeping with usual pharmacovigilance practices, outcome was classified as recovered, recovering, not recovered, fatal, or not reported.

COVID-19 [6] = test: COVID-19 course in CLARIFY-MS and MAGNIFY-MS patients (case reports); format: in vivo, human
Excerpt: Disease course is reported for each of the 3 patients with respect to severity of symptoms, confirmatory status of COVID-19, hospitalisation requirement and recovery status.
Further to the overall outcome for each of the 3 patients from the phase IV studies CLARIFY-MS and MAGNIFY-MS, data on file includes some detail regarding extent and nature of symptoms COVID-19 and concomitant diseases and medications (Table 15).
Aside from COVID-19, no other adverse events or relevant concomitant diseases and medications are reported for Patient 3.

[7] = human, in vivo
[8] = system: lymphocytes (ALC, CD19+ B, CD4+ T, CD8+ T); conditions: second treatment year (Giovannoni et al., 2010); cited from earlier work
clinical = conditions: human, plasma, po, 10 mg
IgG and IgM = test: Serum immunoglobulin levels (IgG, IgM) under cladribine tablets
[9] = Incidence rates of infections in the clinical trial program of cladribine tablets
[10] = Patient Canada VZV-70056800222530003, month 0, 9.7 wk after Shingrix, before first Mavenclad dose
[11] = Patient Canada VZV-70056800222530003, month 3, 23.0 wk after Shingrix, 13.3 wk after first Mavenclad dose

Nc1nc(Cl)nc2c1ncn2[C@H]1C[C@H](O)[C@@H](CO)O1 [cladribine tablets, Cladribine]
absolute lymphocyte levels (lymphocytes; Patient 70056800222010002, month 14, 1 month after vaccination): 700 cells/µL | absolute lymphocyte levels (lymphocytes; Patient 70056800227010005, Month 6): 900 cells/µL | ALC (lymphocytes; Patient Australia VZV-70056800221260001, month 2, 21.0 wk after Zostavax, 11.1 wk after first Mavenclad dose): 960 cells/μL | ALC (lymphocytes; Patient Canada VZV-70056800222530003, Scr, 1.1 wk after Shingrix, 8.6 wk before first Mavenclad dose): 2,100 cells/μL | ALC (lymphocytes; Patient Canada VZV-70056800222530003, month 2, 18.0 wk after Shingrix, 8.3 wk after first Mavenclad dose): 800 cells/μL | ALC (lymphocytes; Patient Canada VZV-70056800222530003, month 12): 1,110 cells/μL | ALC (lymphocytes; Patient Finland VZV-70056800221620004, month 2, 14.3 wk after Zostavax, 7.9 wk after first Mavenclad dose): 670 cells/μL | lymphocytes after first treatment course (lymphocytes; Shingrix case): 800 cells/µL | 2-fold change [1]: 17% | 4-fold change [1]: 8% | Post-vacc seroprotection [1]: 92% | Pre-vacc seroprotection [1]: 83% | 2-fold change [2]: 17% | 4-fold change [2]: 0% | Post-vacc seroprotection [2]: 92% | Pre-vacc seroprotection [2]: 75% | proportion of previously seropositive patients (HAI≥40) with ≥2-fold increase against at least 1 strain (seasonal influenza; 8 patients): 87.5% | proportion of previously seropositive patients (HAI≥40) with ≥4-fold increase against at least 1 strain (seasonal influenza; 8 patients): 37.5% | post-vaccination seroprotection, all Influenza strains (seasonal influenza; all vaccinated patients): 92-100% | rate of 2-fold change in AB titer, all strains (seasonal influenza; in vivo): 17-67% | post-vaccination antibody titer against VZV, protective titer [3]: ≥ 100 IU/L | TEAEs of viral and bacterial infections during the Year 1 Grade ≥3 lymphopenia episode ([4]; Age >50): 30% | patients with TEAEs severe in intensity (pneumonia and bronchitis) ([4]; Age >50 (1 patient)): 3.3% | patients with TEAEs mild to moderate in intensity ([4]; Age >50 (16 patients)): 53.3% | TEAEs of viral and bacterial infections during the Year 1 Grade ≥3 lymphopenia episode ([4]; Age ≤50): 21.5% | patients with TEAEs mild to moderate in severity ([4]; Age ≤50 (103 patients)): 50.2% | incidence of bronchitis ([4]; Age >50): 10% | incidence of herpes zoster ([4]; Age >50): 13.3% | incidence of pneumonia ([4]; Age >50): 6.7% | incidence of respiratory tract infection ([4]; Age >50): 6.7% | incidence of bronchitis ([4]; Age ≤50): 5.9% | incidence of herpes zoster ([4]; Age ≤50): 3.4% | incidence of pneumonia ([4]; Age ≤50): 1.0% | incidence of respiratory tract infection ([4]; Age ≤50): 1.5% | overall incidence of TEAEs of viral and bacterial infections ([4]; Age >50 (17/30)): 56.7% | overall incidence of TEAEs of viral and bacterial infections ([4]; Age ≤50 (105/205)): 51.2% | most recent lymphocyte count, median (COVID-19 [5]; 9/46 patients, min 0.24, max 1.2): 0.7 G/L | median time to onset of COVID-19 from last dose (COVID-19 [5]; 21/46 patients): 180 days | range of time to onset of COVID-19 from last dose (COVID-19 [5]; 21/46 patients): 3 to 559 days | COVID-19 cases medically significant (COVID-19 [5]; confirmed cases): 1 cases | COVID-19 cases requiring hospitalisation (COVID-19 [5]; confirmed cases): 3 cases | COVID-19 outcome: Not resolved (COVID-19 [5]; confirmed cases): 1 cases | COVID-19 outcome: Recovered (COVID-19 [5]; confirmed cases): 8 cases | COVID-19 outcome: Recovering (COVID-19 [5]; confirmed cases): 2 cases | confirmed COVID-19 cases (COVID-19 [5]; of 46 total cases): 18 cases | suspected COVID-19 cases (COVID-19 [5]; of 46 total cases): 28 cases | patients with confirmed or suspected COVID-19 (COVID-19 [5]; of approximately 19,000 treated, as of 29 June 2020): 46 patients | lymphocyte count between most recent course and onset of COVID-19 (COVID-19 [5]; patient from the Netherlands): 0.87 G/L | COVID-19 cases medically significant (COVID-19 [5]; suspected cases): 1 cases | COVID-19 cases requiring hospitalisation (COVID-19 [5]; suspected cases): 1 cases | COVID-19 outcome: Recovered (COVID-19 [5]; suspected cases): 6 cases | COVID-19 outcome: Recovering (COVID-19 [5]; suspected cases): 5 cases | COVID-19 cases that received mechanical ventilation (COVID-19 [5]; suspected or confirmed): None | COVID-19 deaths (COVID-19 [5]; suspected or confirmed): no deaths | COVID-19 symptoms in the majority of patients (COVID-19 [5]; suspected or confirmed): mild to moderate respiratory symptoms | Lymphocyte counts (COVID-19 [6]; BL (baseline), c1-c3 = Patient 1, 2 (CLARIFY-MS), 3 (MAGNIFY-MS)): 1.48 G/L and 2.80 G/L and 2.39 G/L | Lymphocyte counts (COVID-19 [6]; M14 (January 2020), Patient 1): 0.49 G/L | Lymphocyte counts (COVID-19 [6]; Uns v. (17 Mar. 2020), Patient 2): 0.20 G/L | Adverse events (COVID-19 [6]; c1-c3 = Patient 1, 2, 3): Asthmatic bronchitis and Tachycardia and None and Swollen glands and Angina pectoris and Poss. reaction of EBV - | COVID-19 severity (COVID-19 [6]; c1-c3 = Patient 1, 2, 3): SAE, Severe,; also recorded: Mild, not serious (no | herpes zoster incidence [7]: 0.83 episodes per 100 PY | incidence rate of serious infections [7]: 0.8 /100 PY | incidence rate of total infections [7]: 24.9 events per 100 patient-years (PY) | median ALC [8]: above 800 cells/mL | bioavailability (clinical): 45.6% | IgG immunoglobulin levels vs baseline (IgG and IgM; 1, 2, 3, 6 and 12 month): comparable to baseline | IgG, change vs baseline (IgG and IgM; Month 3): +10% | IgM, change vs baseline (IgG and IgM; Month 3): −5% | IgG, change vs baseline (IgG and IgM; Month 6): +11% | IgM, change vs baseline (IgG and IgM; Month 6): −13% | IgG, change vs baseline (IgG and IgM; Month 12): +3% | IgM, change vs baseline (IgG and IgM; Month 12): +21% | IgG levels (IgG and IgM; Patient 70056800222520001): not affected | IgG immunoglobulin levels (IgG and IgM; Patient 70056800227010005, any timepoint after treatment): not affected | IgM (IgG and IgM; Patient Australia VZV-70056800221260001, month 3, 24.6 wk after Zostavax, 14.7 wk after first Mavenclad dose): 59 mg/dL | IgG (IgG and IgM; [10]): 1,410 mg/dL | IgM (IgG and IgM; [10]): 190 mg/dL | IgG (IgG and IgM; [11]): 1,510 mg/dL | IgM (IgG and IgM; [11]): 166 mg/dL | IgM levels (IgG and IgM; month 12, still in the normal range): slightly decreased | immunoglobulin numbers after cladribine treatment (IgG and IgM; various time points): not decreased | influenza incidence ([9]; lymphopenia grade 0-2): 2.75 cases per 100 PY | influenza incidence ([9]; lymphopenia grade 3-4): 3.35 /100 PY
